{
  "source": "patent US12583900B2",
  "about": "“Peptide conjugates and methods of use” (The Scripps Research Institute, priority 2019, dated 2026)",
  "assay_type_in_all_cases": "in vivo, mouse",
  "key": {"C57BL/6J mice [1]": {"test_system": "C57BL/6J mice", "assay": "Oral glucose tolerance test 6 h, 48 h, 96 h post dose (GLP-1R/GCGR agonists)", "settings": "48 h after administration", "description": "C57BL/6J mice (n=6/group) between 10-12 weeks old were fasted overnight and then administrated with 5 mL/kg of each peptide in PBS (pH=8.2) by s.c. route. After 6 hours, mice were orally or intraperitoneally administrated with 2 g of glucose solution per kg body weight and their tail blood glucose levels were measured before (0 min) and after glucose challenge for 2 hours. Follow up OGTT were also performed at 48 h, and 96 h post-original dose in same mice after overnight fast.\nThe efficacy of the GLP-1R/GCGR dual agonist 135 was then evaluated in an oral glucose tolerance test (OGTT) in wilt type mice."}, "DIO mice (C57BL/6)": {"test_system": "DIO mice (C57BL/6)", "assay": "DIO mice study, daily s.c. dosing 21 days, plasma and liver analyses (28-week old)", "description": "All animal care and experimental procedures were approved by the Institutional Animal Care and Use Committee (IACUC) of California Institute for Biomedical Research (Calibr) and strictly followed the NIH guidelines for humane treatment of animals. The results are expressed as means S.E., and the data were compared using the unpaired Student's t test. Where appropriate, data were compared using repeated measures or one-way analysis of variance, followed by the Student-Newman-Keuls post hoc test. Incremental area under the curve (AUC) analyses for plasma glucose was calculated using GraphPad Prism 6.\nDIO mice (C57BL/6, male, 28-week old) were randomized based on their body weight and were treated with daily subcutaneous injections of peptide or vehicle (n=7/group). Body weight and food intake were monitored daily throughout the study. At the end of the experiment, mice were sacrificed, and visceral fat mass were weighed. Collected plasma was used for cholesterol level determination according to the manufacturer's guide (cholesterol assay kit, Abcam, Cambridge, England) and triglyceride level using a triglyceride colorimetric assay kit (Cayman chemical, Ann Arbor, Michigan).\nCollected plasma was used for cholesterol level determination according to the manufacturer's guide (cholesterol assay kit, Abcam, Cambridge, England). Briefly, plasma was diluted using cholesterol assay buffer and then reacted with the same volume of reaction mix containing cholesterol assay buffer, cholesterol probe, enzyme mix and cholesterol esterase. After incubation at 37° C. for 1 hour, the absorbance at 560 nm was measured using an Envision multilabel plate reader (PerkinElmer, Waltham, MA). Subsequently, the concentration of cholesterol in plasma was calculated according to a standard curve.\nCollected plasma was used for triglyceride level determination using a triglyceride colorimetric assay kit (Cayman chemical, Ann Arbor, Michigan). 5 μL of plasma samples or standard were plated into a 384 well plate and followed by adding 75 μL of diluted enzyme buffer to each well. The mixture was incubated at room temperature for 15 min, and the absorbance was read at 560 nm using an Envision plate reader (PerkinElmer, Waltham, MA). The concentration of triglyceride in plasma was calculated using a standard curve.\nTerminal serum analytes including total cholesterol, triglyceride, alanine aminotransferase (ALT), aspartate aminotransferase (AST), alkaline phosphatase (ALP) were determined by Alfa Wassermann Vet Axcel® clinical analyzer. Hepatic triglycerides were measured in liver homogenates generated with a colorimetric triglyceride kit (Cayman Chemical). Paraformaldehyde-fixed liver were paraffin-embedded, sectioned and stained with hematoxylin-eosin and Picro-Sirius red by HistoTox Labs (Boulder, CO). All histological assessment (steatosis, fibrosis scoring) were performed by a certified histopathologist blind to treatment (HistoTox Labs) based on classification outlined by Kleiner et al.^3"}, "C57BL/6J mice [2]": {"test_system": "C57BL/6J mice", "assay": "Oral glucose tolerance test 2 h, 72 h, 96 h, […] post dose (GLP-1R/GIPR agonists)", "description": "C57BL/6J mice (n=6/group) between 10-12 weeks old were fasted overnight and then administrated with 5 mL/kg of each peptide in PBS (pH=8.2) by s.c. route. […]"}},
  "data": [
    {"compound": "CCCCCCCCCCCCCCCC(=O)N[C@@H](CCC(=O)NCCCC[C@H](NC(=O)[C@H](CC(=O)O)NC(=O)[C@H](CO)NC(=O)[C@@H](NC(=O)[C@H](Cc1ccccc1)NC(=O)[C@@H](NC(=O)CNC(=O)[C@H](CCC(N)=O)NC(=O)[C@H](CO)NC(=O)[C@@H](N)Cc1c[nH]cn1)[C@@H](C)O)[C@@H](C)O)C(=O)N[C@@H](CO)C(=O)N[C@@H](CCC(=O)O)C(=O)N[C@@H](Cc1ccc(O)cc1)C(=O)N[C@@H](CC(C)C)C(=O)N[C@@H](CC(=O)O)C(=O)N[C@@H](CO)C(=O)N[C@@H](CCC(=O)O)C(=O)N[C@@H](CCCNC(=N)N)C(=O)N[C@@H](C)C(=O)N[C@@H](CCCNC(=N)N)C(=O)N[C@@H](CC(=O)O)C(=O)N[C@@H](Cc1ccccc1)C(=O)N[C@H](C(=O)N[C@@H](C)C(=O)N[C@@H](Cc1c[nH]c2ccccc12)C(=O)N[C@@H](CC(C)C)C(=O)N[C@@H](CCC(=O)O)C(=O)N[C@@H](C)C(=O)NCC(=O)NCC(=O)O)C(C)C)C(=O)O", "note": "[cotadutide]", "values": [
      {"measurement": "glucose handling in OGTT", "setting": "C57BL/6J mice [1]", "value": "did not exhibit any improvement over the vehicle"},
      {"measurement": "plasma glucose excursions in a fasted state", "setting": "DIO mice (C57BL/6); day 21", "value": "significant decrease"},
      {"measurement": "liver to bodyweight ratio", "setting": "DIO mice (C57BL/6); vs vehicle", "value": "significantly decreased"},
      {"measurement": "liver triglyceride level", "setting": "DIO mice (C57BL/6); vs vehicle", "value": "significantly decreased"},
      {"measurement": "liver weight", "setting": "DIO mice (C57BL/6); vs vehicle", "value": "significantly decreased"}
    ]},
    {"compound": "semaglutide", "values": [
      {"measurement": "OGTT blood glucose levels as measured by the AUC vs vehicle", "setting": "C57BL/6J mice [2]; 2 hours post dose", "value": "significant decrease"},
      {"measurement": "fasted glucose levels vs vehicle", "setting": "C57BL/6J mice [2]; 2 hours post treatment", "value": "significant decrease"},
      {"measurement": "OGTT blood glucose levels as measured by the AUC vs vehicle", "setting": "C57BL/6J mice [2]; 72 hours post dose", "value": "significant decrease"},
      {"measurement": "fasted glucose levels vs vehicle", "setting": "C57BL/6J mice [2]; 72 hours post treatment", "value": "significant decrease"},
      {"measurement": "OGTT blood glucose levels as measured by the AUC vs vehicle", "setting": "C57BL/6J mice [2]; 96 hours post dose", "value": "significant decrease"},
      {"measurement": "fasted glucose levels vs vehicle", "setting": "C57BL/6J mice [2]; 96 hours post treatment", "value": "significant decrease"},
      {"measurement": "OGTT blood glucose levels as measured by the AUC vs vehicle", "setting": "C57BL/6J mice [2]; […] post dose", "value": "significant decrease"},
      {"measurement": "fasted glucose levels vs vehicle", "setting": "C57BL/6J mice [2]; […] post treatment", "value": "significant decrease"},
      {"measurement": "food consumption over 20 days vs vehicle", "setting": "DIO mice (C57BL/6); DIO mice, daily s.c.", "value": "reduction"},
      {"measurement": "total bodyweight and percent change from initial bodyweight over 21 days", "setting": "DIO mice (C57BL/6); DIO mice, daily s.c.", "value": "decrease"},
      {"measurement": "plasma glucose excursions in a fed state", "setting": "DIO mice (C57BL/6); day 20", "value": "significant decrease"},
      {"measurement": "OGTT glucose levels over time and AUC", "setting": "DIO mice (C57BL/6); day 21", "value": "significant decrease"},
      {"measurement": "plasma glucose excursions in a fasted state", "setting": "DIO mice (C57BL/6); day 21", "value": "significant decrease"},
      {"measurement": "plasma level of ALP", "setting": "DIO mice (C57BL/6); terminal, vs vehicle", "value": "significantly reduced"},
      {"measurement": "plasma level of ALT", "setting": "DIO mice (C57BL/6); terminal, vs vehicle", "value": "significantly reduced"},
      {"measurement": "plasma level of cholesterol", "setting": "DIO mice (C57BL/6); terminal, vs vehicle", "value": "significantly reduced"},
      {"measurement": "plasma level of triglycerides", "setting": "DIO mice (C57BL/6); terminal, vs vehicle", "value": "significantly reduced"},
      {"measurement": "fat weight", "setting": "DIO mice (C57BL/6); vs vehicle", "value": "significantly reduced"},
      {"measurement": "liver to bodyweight ratio", "setting": "DIO mice (C57BL/6); vs vehicle", "value": "significantly decreased"},
      {"measurement": "liver triglyceride level", "setting": "DIO mice (C57BL/6); vs vehicle", "value": "significantly decreased"},
      {"measurement": "liver weight", "setting": "DIO mice (C57BL/6); vs vehicle", "value": "significantly decreased"},
      {"measurement": "steatosis grade", "setting": "DIO mice (C57BL/6); vs vehicle", "value": "reduced"}
    ]}
  ]
}
